The structures appear in SMILES notation. The source made the active and inactive calls.

One assay addresses Prothrombin (Bos taurus, UniProt P00735). Nature of the assay: thrombin protease inhibitors – biochemical, fluorescence polarization, uHTS hits, dose response (AID 602369). Format: functional. (Polarisation of emitted light reports the rotation of a fluorescent probe.)
Assay [1] concerns the target 72 kDa type IV collagenase (Homo sapiens, UniProt P08253). Nature of the assay: Dose Response validation of uHTS RPN11 inhibitor hits using a MMP-2 Fluorescence assay. It is filed as functional.
In assay [2] the target is 26S proteasome non-ATPase regulatory subunit 14 (Homo sapiens, UniProt O00487). Nature of the assay: inhibition of proteasome subunit RPN11 – biochemical, fluorescence polarization, uHTS hits, confirmation (AID 602368). Format: functional.
26S proteasome non-ATPase regulatory subunit 14, sequence (O00487 whole entry): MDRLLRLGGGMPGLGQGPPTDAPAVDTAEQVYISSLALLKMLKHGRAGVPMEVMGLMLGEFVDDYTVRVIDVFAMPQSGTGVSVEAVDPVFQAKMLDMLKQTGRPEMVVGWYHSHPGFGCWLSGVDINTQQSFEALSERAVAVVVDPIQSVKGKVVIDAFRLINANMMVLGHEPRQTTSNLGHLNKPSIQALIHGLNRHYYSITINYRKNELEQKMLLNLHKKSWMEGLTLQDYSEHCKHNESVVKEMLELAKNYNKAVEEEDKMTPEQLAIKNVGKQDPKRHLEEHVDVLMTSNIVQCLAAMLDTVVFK
In the next assay the test system is H9c2. Nature of the assay: cells. Format: functional, cell-based. As to conditions: Rattus norvegicus, H9c2, Myocardium.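 Also: confirmatory concentration-response retest of ultra-high-throughput screening hits for modulation of myocardial damage; cell death induced by hydrogen peroxide oxidative stress; compound pretreatment for 60 min then peroxide exposure for 2 h; potency is for protecting the cells against peroxide damage rather than for killing them.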
Assay [3] addresses T1, Sentrin-specific protease 1 (Homo sapiens, UniProt Q9P0U3).
T1 sequence (Q9P0U3 whole entry): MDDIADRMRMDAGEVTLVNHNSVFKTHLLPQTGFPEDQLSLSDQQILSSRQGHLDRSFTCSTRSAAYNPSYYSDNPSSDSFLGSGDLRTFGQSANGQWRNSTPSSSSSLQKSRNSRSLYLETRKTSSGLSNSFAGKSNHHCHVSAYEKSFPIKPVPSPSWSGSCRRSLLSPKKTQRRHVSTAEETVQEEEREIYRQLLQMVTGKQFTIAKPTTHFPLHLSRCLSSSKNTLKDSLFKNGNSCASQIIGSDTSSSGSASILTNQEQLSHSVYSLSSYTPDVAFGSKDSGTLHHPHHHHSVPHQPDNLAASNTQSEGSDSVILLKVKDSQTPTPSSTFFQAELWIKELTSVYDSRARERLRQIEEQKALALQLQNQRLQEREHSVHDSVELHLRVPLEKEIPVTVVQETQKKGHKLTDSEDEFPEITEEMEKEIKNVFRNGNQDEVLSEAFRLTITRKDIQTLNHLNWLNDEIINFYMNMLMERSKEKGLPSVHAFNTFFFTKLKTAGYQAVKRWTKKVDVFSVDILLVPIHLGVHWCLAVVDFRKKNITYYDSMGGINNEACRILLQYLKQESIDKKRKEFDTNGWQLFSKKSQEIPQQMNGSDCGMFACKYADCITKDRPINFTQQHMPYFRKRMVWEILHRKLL
Kind of assay: SENP1 catalytic domain blockers, concentration series – biochemical, kinetic FRET, dose response (AID 651697). Format: functional. The following applies: read-out: IC50_Mean.

The target of assay [4] is T2, Rac GTPase-activating protein 1 (Homo sapiens, UniProt Q9H0H5).
T2 sequence (Q9H0H5 whole entry): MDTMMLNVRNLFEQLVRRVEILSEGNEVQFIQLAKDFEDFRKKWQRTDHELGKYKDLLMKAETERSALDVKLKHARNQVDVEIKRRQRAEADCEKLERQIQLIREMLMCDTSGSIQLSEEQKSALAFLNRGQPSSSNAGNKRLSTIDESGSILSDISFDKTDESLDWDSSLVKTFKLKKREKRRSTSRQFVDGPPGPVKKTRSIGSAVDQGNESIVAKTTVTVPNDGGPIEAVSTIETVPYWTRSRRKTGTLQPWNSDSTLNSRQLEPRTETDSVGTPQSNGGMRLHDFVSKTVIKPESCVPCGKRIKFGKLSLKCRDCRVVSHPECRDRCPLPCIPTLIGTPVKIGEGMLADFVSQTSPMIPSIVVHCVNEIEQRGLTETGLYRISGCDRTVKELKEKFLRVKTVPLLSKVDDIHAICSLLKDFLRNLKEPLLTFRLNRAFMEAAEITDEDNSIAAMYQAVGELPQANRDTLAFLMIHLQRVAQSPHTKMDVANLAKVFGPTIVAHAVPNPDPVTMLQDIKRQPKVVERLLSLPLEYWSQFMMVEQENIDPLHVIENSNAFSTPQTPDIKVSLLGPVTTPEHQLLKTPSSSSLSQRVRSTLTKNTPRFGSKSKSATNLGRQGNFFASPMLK
Nature of the assay: blockers of MgcRacGAP-driven Rac1 GTP hydrolysis – biochemical, ADP Hunter fluorescence, primary and confirmatory, confirmation (AID 624330). It is filed as functional.

Assay [5] addresses T1, Sentrin-specific protease 1. Kind of assay: Dose response confirmation of small molecule inhibitors of the catalytic domain of the SUMO protease, SENP1 in a FRET assay. It is filed as functional. The following applies: read-out: IC50_Mean.
Assay [6] addresses T3, Apoptotic protease-activating factor 1 (Homo sapiens, UniProt O14727).
T3 sequence (O14727 whole entry): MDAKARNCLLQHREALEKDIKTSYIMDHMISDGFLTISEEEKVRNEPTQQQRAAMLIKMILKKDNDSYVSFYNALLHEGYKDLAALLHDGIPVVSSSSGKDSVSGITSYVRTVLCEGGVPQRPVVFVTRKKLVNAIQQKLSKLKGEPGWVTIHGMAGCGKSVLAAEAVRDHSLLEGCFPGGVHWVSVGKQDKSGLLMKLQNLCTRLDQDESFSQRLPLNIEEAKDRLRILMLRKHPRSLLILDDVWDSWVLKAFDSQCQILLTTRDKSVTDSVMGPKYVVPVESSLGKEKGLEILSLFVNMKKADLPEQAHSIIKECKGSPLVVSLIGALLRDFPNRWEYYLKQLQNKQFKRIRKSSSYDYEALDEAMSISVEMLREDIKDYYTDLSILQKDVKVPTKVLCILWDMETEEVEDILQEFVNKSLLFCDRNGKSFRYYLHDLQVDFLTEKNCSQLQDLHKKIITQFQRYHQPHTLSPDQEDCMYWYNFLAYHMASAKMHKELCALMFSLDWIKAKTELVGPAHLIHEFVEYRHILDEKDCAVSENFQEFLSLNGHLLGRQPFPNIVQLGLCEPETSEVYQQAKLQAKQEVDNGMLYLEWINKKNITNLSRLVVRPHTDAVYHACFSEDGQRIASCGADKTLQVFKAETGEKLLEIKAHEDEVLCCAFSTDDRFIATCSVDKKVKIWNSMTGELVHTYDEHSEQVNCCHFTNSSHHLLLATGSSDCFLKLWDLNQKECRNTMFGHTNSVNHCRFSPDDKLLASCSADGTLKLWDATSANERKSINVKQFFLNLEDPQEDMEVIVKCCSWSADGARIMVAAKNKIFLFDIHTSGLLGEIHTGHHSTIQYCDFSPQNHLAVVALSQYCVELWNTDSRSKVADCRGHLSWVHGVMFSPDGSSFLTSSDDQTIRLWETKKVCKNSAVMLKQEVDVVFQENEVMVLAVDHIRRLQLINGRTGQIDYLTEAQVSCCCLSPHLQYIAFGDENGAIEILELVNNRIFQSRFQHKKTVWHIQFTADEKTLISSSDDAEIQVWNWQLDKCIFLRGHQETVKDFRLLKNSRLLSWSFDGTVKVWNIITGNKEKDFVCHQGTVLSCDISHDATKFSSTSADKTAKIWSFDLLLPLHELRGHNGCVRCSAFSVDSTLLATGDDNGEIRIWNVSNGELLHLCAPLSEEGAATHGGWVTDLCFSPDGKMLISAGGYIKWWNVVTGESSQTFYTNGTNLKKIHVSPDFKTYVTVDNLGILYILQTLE
Kind of assay: SAR analysis of small molecule Activators of Apaf-1 in a Fluorescent assay. It is filed as functional. As to conditions: read-out: EC50_Mean.

The test system of the next assay is HEK293. Kind of assay: EBV LMP1 TES2 canonical NF-kB signalling blockers – cell-based, HEK293, luciferase, cherry-pick, dose response (AID 588343). Format: functional. As to conditions: Homo sapiens.
A short description of assay [7]: reduction of Shn3 3'UTR-driven luciferase in osteoblasts – cell-based, Clone20 osteoblasts, firefly luciferase, cherry-picked, dose response (AID 624132).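 Also: firefly luciferase luminescence from reporter carrying the Shn3 3'UTR in osteoblasts.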 Format: functional.
The test system of the next assay is Vero. Kind of assay: cells. Format: functional. As to conditions: Chlorocebus sabaeus.
Assay [8] can be described thus: NIH-3T3 fibroblast cytotoxicity, dose response, cytotoxicity control, cell-based, fluorescence, Alamar Blue, secondary assay (AID 2327).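 Also: NIH-3T3 mouse fibroblasts cultured with fluconazole at 8 µg/mL.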 It is filed as functional. In general terms: The colour change of resazurin is a common sign of viable cells or microbes.
The target in assay [9] is T4, Latent membrane protein 1 (Human herpesvirus 4 (strain B95-8), UniProt P03230).
T4 sequence (P03230 whole entry): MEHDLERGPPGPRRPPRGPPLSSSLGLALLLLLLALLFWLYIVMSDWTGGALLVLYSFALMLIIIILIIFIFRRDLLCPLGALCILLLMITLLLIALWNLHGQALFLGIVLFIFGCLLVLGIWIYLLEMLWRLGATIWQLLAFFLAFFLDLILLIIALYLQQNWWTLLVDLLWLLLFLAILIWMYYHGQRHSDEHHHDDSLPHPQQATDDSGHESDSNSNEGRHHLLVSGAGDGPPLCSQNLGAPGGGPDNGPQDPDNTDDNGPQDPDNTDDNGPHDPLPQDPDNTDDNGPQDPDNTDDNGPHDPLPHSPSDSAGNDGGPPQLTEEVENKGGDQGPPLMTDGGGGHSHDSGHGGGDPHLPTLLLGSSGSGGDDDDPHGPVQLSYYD
Kind of assay: LMP1 TES1 pathway selectivity over dsRED control – imaging, HEK293T, dual-color eGFP/dsRED, cherry-picks, selectivity assay for LMP1 NF-kB inhibitor project, dose response (AID 588398). Format: functional, cell-based.

A short description of assay [10]: loss of viability in HepG2 cells – cell-based, CellTiter-Glo, cherry-picked, cytotoxicity control for Shn3 inhibitor project, dose response (AID 624134). Format: functional. (In general: Cellular ATP, detected with luciferase, serves as a proxy for viable cell number.)
Assay [11] in a line: non-specific 3'UTR reporter inhibition in Clone20-Shn3RL – cell-based, Renilla luciferase, cherry-picked, counter-screen for Shn3 inhibitor project, dose response (AID 624133). Format: functional.
A short description of assay [12]: fluconazole-exposed Candida albicans growth modulators – fluorescence, retest, confirmation (AID 2467). Format: functional, cell-based.
In assay [13] the target is Adenosylmethionine-8-amino-7-oxononanoate aminotransferase (Mycobacterium tuberculosis, UniProt P9WQ81). Kind of assay: Mycobacterium tuberculosis BioA enzyme inhibitor Measured in Biochemical System Using Plate Reader - 2163-02_Inhibitor_Dose_CherryPick_Activity. Format: functional, Mycobacterium tuberculosis UT205.
Adenosylmethionine-8-amino-7-oxononanoate aminotransferase, sequence (P9WQ81 whole entry): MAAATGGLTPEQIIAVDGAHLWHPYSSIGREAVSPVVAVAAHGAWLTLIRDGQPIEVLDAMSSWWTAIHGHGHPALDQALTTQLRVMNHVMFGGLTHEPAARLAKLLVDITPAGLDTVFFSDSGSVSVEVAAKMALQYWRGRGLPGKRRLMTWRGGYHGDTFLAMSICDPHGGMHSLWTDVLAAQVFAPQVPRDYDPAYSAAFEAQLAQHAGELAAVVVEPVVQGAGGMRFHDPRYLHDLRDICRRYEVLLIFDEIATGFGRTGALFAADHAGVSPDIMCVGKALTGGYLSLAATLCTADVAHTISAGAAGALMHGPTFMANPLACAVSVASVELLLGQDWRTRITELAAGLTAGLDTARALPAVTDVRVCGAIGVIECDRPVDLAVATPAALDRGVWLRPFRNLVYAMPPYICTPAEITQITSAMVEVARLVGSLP
Assay [14] addresses Ras and Rab interactor 1/Tyrosine-protein kinase ABL1 (Homo sapiens, UniProt P00519+Q13671). It is filed as functional.
Assay [15] concerns the target T5, Probable nicotinate-nucleotide adenylyltransferase (Staphylococcus aureus (strain N315), UniProt P65502). Format: functional, Staphylococcus aureus subsp. aureus N315.
The target of assay [16] is T5, Probable nicotinate-nucleotide adenylyltransferase. It is filed as functional, Staphylococcus aureus subsp. aureus N315. As to conditions: read-out: IC50_Mean.
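For EC50 Mean in this document: caspase-3 cleavage of fluorogenic Rh110 DEVD substrate downstream of apoptosome activation.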

72 kDa type IV collagenase, sequence (P08253 whole entry): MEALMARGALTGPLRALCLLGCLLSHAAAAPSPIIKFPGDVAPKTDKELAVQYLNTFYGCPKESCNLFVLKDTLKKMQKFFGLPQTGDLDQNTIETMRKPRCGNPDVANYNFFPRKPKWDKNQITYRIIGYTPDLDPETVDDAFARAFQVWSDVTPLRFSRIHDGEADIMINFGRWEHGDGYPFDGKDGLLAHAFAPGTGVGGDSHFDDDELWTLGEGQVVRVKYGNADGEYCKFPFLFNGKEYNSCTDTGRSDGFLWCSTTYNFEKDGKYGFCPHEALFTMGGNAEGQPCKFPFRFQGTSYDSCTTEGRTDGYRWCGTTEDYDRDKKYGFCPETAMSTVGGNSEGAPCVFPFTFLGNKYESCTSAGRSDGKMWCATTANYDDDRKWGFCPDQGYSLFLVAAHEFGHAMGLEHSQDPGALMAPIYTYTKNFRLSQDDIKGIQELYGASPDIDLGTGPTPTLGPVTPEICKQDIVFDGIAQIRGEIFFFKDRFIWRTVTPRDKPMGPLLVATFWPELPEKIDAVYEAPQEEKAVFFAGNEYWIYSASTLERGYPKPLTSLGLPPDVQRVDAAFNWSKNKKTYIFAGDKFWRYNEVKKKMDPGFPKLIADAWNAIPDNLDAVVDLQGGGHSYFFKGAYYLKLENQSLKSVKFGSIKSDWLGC
T5 sequence (P65502 whole entry): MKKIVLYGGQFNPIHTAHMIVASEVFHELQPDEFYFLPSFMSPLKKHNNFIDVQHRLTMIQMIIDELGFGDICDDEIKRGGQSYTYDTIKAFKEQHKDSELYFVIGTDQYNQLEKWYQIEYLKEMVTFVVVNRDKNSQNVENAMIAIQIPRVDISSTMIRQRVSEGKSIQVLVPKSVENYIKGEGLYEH
Ras and Rab interactor 1/Tyrosine-protein kinase ABL1, sequence (P00519 whole entry): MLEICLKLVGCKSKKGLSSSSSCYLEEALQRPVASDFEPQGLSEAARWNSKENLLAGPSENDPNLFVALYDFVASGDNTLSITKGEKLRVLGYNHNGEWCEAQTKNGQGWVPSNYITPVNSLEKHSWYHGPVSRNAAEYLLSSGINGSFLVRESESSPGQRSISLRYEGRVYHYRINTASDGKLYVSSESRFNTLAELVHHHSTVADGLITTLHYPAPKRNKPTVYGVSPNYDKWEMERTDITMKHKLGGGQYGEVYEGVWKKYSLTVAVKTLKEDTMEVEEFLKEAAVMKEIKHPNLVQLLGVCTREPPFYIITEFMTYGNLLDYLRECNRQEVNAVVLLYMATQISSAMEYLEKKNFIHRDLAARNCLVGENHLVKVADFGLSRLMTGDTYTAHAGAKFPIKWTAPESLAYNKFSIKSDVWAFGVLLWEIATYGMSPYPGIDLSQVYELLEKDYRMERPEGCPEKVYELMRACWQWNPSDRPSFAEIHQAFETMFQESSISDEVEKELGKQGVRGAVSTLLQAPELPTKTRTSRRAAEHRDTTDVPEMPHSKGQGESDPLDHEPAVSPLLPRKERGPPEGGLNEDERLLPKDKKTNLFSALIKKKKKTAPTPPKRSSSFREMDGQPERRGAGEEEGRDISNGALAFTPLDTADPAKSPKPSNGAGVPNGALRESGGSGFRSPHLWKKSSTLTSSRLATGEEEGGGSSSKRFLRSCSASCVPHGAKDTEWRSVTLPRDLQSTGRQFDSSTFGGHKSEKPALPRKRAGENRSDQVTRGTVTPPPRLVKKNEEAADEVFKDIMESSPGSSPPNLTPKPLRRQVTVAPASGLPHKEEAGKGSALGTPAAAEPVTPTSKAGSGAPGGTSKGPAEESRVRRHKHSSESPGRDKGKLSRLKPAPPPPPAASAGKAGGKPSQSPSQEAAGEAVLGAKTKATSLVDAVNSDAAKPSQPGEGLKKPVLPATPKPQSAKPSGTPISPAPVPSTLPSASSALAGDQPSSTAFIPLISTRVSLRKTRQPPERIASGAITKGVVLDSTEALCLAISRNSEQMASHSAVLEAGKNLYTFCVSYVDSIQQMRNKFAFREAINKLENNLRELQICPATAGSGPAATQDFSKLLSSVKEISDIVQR
Ras and Rab interactor 1/Tyrosine-protein kinase ABL1, sequence (Q13671 whole entry): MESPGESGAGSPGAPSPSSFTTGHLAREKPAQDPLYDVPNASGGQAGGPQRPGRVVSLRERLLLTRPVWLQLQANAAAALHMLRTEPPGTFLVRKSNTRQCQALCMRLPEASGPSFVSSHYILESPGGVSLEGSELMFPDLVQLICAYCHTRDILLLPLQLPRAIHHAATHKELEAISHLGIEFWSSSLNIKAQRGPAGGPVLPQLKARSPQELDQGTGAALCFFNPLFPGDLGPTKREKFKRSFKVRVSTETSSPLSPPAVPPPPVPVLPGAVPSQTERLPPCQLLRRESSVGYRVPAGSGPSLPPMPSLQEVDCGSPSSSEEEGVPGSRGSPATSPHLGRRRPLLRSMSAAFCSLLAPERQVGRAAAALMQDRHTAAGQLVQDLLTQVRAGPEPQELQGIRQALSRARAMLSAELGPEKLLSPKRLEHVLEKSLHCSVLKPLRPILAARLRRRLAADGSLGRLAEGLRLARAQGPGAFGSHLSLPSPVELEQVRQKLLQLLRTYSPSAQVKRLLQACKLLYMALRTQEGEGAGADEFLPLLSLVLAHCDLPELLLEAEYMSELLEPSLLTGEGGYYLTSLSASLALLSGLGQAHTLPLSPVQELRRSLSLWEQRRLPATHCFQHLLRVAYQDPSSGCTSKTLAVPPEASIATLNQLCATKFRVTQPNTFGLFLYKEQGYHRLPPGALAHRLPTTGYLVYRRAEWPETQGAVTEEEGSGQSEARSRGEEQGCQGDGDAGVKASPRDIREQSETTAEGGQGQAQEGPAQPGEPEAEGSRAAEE

As for `COc1ccc(-c2ccc3c(c2)S(=O)(=O)c2cccc(C(=O)N4CCN(c5c(Cl)cncc5Cl)CC4)c2C3=O)cc1OC`, the IC50 on Prothrombin was 29.3 µM (active); in assay [1] it was > 100 µM (inactive); in assay [2], 21.7 µM (active); in the assay on H9c2, > 79 µM (inactive).
As to `CCOC(=O)C1CCCN(C2=NC(=O)/C(=C/c3ccc(O)c(OC)c3)S2)C1` (configuration not stated), the IC50 at Prothrombin is 40.6 µM (active); in assay [3] it was 2.97 µM (active); in assay [4], 19.6 µM (active); in assay [1], > 100 µM (inactive); in assay [2], 26.3 µM (active); in assay [5], 2.49 µM (active).
`N[C@@H](CCc1ccccc1)C(=O)O` [HOMOPHENYLALANINE]: the EC50 in assay [6] is > 100 µM (inactive).
Turning to `COc1ccc(C(=O)NC(=S)NNC(=O)c2ccc3ccccc3n2)cc1`, the AC50 with HEK293 is 13.6 µM (active); in assay [7], 4.32 µM (active); in assay [9], 26.8 µM (active); in assay [10] it was 41.5 µM (active); in [11], 1.37 µM (active). Moreover, the CC50 in the assay on Vero was 10.1 µM (active). The values for the EC50 in assay [8] and in [12] were 28.4 µM (active) and 3.06 µM (active), respectively.
`Cc1c(OC(C)C(=O)NCc2ccccn2)ccc2c3c(c(=O)oc12)CCC3` (configuration not stated): in assay [13], the AC50 is 6.05 µM (active).
For the compound `CCc1nn(CC(=O)N2CCN(Cc3ccc4c(c3)OCO4)CC2)c(=O)c2cc3occc3n12`, in assay [13], the AC50 was 1.01 µM (active).
For `CCOC(=O)CCCCC(=O)c1[nH]c(O)nc1C[n+]1ccc(C)cc1`, the IC50 in assay [14] was 5.77 µM (active).
As to `CN1c2ccccc2C(C)(C)C12CC(c1ccc(F)cc1)=NO2` (configuration not stated), the EC50 in [6] was > 100 µM (inactive).
As for `CCn1c2ccccc2c2cc(/C=N/n3c(S)nnc3-c3cc(C)[nH]n3)ccc21`, the AC50 in the assay with HEK293 is 8.12 µM (active); in assay [9], 0.288 µM (active). Besides, the IC50 in [15] was 8.02 µM (active); in [16], 33.7 µM (active).

By AC50 is commonly meant the midpoint of the concentration-response curve, whichever way the signal moves. The term CC50 denotes the concentration giving 50% cytotoxicity.

Values taken from ChEMBL document CHEMBL1201862, “PubChem BioAssay data set” (2004).
